Assay results taken from patent US20180045715A1, “STRUCTURE AND FUNCTION OF THE SALICYCLIC ACID BINDING SITES ON HUMAN HMGB1 AND METHODS OF USE THEREOF FOR THE RATIONAL DESIGN OF BOTH SALICYCLIC ACID DERIVATIVES AND OTHER AGENTS THAT ALTER ANIMAL AND PLANT HMGBS ACTIVITIES” (Boyce Thompson Institute for Plant Research, Inc., priority 2015, published 2018).
Numbering of substitutions follows the chain as printed.

Assays:
AtHMGB3 = molecular target: T1, AtHMGB3 (Arabidopsis thaliana, UniProt P93047); assay: SPR: AtHMGB3 binding to immobilized 3AESA; design: providing a full length Arabidopsis thaliana HMGB1 or HMGB3 (AtHMGB1 or AtHMGB3) protein; 6x His; made in house; host or cells: Escherichia coli BL21
T1 sequence (P93047 1-141): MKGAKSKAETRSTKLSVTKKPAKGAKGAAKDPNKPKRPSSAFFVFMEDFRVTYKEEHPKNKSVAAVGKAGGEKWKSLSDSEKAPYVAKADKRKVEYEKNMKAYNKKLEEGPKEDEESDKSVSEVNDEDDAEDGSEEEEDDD

AtHMGB1 = molecular target: T2, AtHMGB1 (Arabidopsis thaliana, UniProt O49595); assay: SPR: AtHMGB1 binding to immobilized 3AESA
T2 sequence (O49595 1-178): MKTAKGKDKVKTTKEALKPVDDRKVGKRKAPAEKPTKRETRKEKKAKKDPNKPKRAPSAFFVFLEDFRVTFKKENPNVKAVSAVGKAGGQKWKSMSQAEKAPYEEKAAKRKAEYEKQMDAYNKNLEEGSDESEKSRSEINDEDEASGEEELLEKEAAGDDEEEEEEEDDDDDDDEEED
Experimental: For SPR, 3-AESA was immobilized on a CM5 sensor chip (GE Healthcare) using the amine coupling kit (GE Healthcare). To test SA binding activity, 0.5 μM HMGB1 in HBS-EP buffer (0.01 M HEPES, pH 7.4, 0.15 M NaCl, 3 mM EDTA, 0.005% v/v Surfactant P20; GE Healthcare) without or with varying concentrations of SA was flowed through 3-AESA-immobilized or mock-coupled flow cells. The binding signals were determined by subtracting out the signal from the mock-coupled flow cell.

[1] = molecular target: T3, mutant (R24A/K28A) HMGB1^RE (Homo sapiens, UniProt P09429, K28A/R24A); assay: Chemotaxis assay with mutant R24A/K28A HMGB1^RE; format: cell-based; details: NIH/3T3 fibroblasts
T3 construct: (i) full length: residues 2-215; made in house
T3 sequence (P09429 2-215 R24A/K28A): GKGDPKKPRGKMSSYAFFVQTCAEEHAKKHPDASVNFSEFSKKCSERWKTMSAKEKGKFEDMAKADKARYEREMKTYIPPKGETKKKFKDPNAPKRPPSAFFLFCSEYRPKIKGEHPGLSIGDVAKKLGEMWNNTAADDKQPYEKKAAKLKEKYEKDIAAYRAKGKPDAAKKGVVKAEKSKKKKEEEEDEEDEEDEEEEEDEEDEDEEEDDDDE
Experimental: (§1) Cell migration was assayed using Boyden chambers (Venereau et al., 2012). The downside of PVP-free polycarbonate filters (8 μm pores; Millipore) was coated with 50 μg/ml fibronectin (Sigma). Serum-free DMEM (negative control), DMEM containing 0.1 nM fMLP (positive control; Sigma), or DMEM containing 1 nM HMGB1^RE or HMGB1^SS were placed in the lower chamber, together with different concentrations of SA (Sigma). The mouse 3T3 fibroblast cells were cultured in DMEM media supplemented with 10% CS until 90% confluence, washed twice with PBS to eliminate any floating cells, and harvested with trypsin. 50,000 cells in 200 μL were added to the upper chamber, and cells were left to migrate for 3 h at 37° C. Non-migrating cells were removed with a cotton swab, and migrated cells were fixed with ethanol and stained with Giemsa.
(§2) An alternative explanation is that SA, at low concentrations, affects another factor in vivo, which results indirectly in suppression of HMGB1^RE-induced chemotaxis. […] Therefore, these residues were mutated to Ala to form the double mutant Arg24Ala/Lys28Ala (R24A/K28A).

[2] = molecular target: T4, full-length (FL) R24A/K28A HMGB1 (Homo sapiens, UniProt P09429, K28A/R24A); assay: 15N-1H HSQC NMR binding to R24A/K28A HMGB1; details: ~0.1 mM protein; 15 mM SA, 3 mM ac3AESA or 3 mM amorfrutin B1
T4 construct: (i) full length: residues 2-215; made in house
T4 sequence (P09429 2-215 R24A/K28A): T3 sequence (P09429 2-215 R24A/K28A)
Experimental: […] Samples were analyzed with and without SA or other candidate inhibitors at 25° C. Chemical shift perturbation studies were carried out using either a Bruker Avance 800 MHz Avance NMR system with 4-mm NMR tubes, or using a Bruker Avance 600 MHz NMR spectrometer equipped with a 1.7 mm micro cryoprobe. 1024 or 2048 complex points were acquired for each of 80 to 200 increments in the ^15N dimension with a recycle delay of 1 s. Each spectrum was typically acquired for 2-8 hrs. Chemical shift assignments were determined using a uniformly ^13C,^15N-enriched HMGB1-ΔC construct at 25° C. via traditional triple-resonance NMR experiments (Biamonti et al., 1994; Moseley et al., 2001) recorded on a Bruker 800 MHz NMR spectrometer equipped with a 5 mm cryoprobe. Disulfide oxidation studies were carried out using the ^15N-^1H SOFAST-HMQC NMR experiment (Schanda & Brutscher, 2005; Schanda et al., 2005; Zandarashvili et al., 2013).
as §2

[3] = tested on: fMLP-induced migration of NIH/3T3 fibroblast cells; assay: Chemotaxis assay: fMLP-induced fibroblast migration (specificity control); format: cell-based, mouse; details: 0.1 nM fMLP
Experimental: as §1
(§3) HMGB1^RE acts as a chemo-attractant that mediates migration of several cell types, including monocytes, fibroblasts, mesoangioblasts, smooth muscle cells, and colon cancer cells (Venereau et al., 2012). To determine whether SA alters HMGB 1's chemo-attractant activity, a chemotaxis assay was performed with mouse 3T3 fibroblasts.

HMGB1^RE = molecular target: T5, HMGB1^RE (Homo sapiens, UniProt P09429); assay: Chemotaxis assay (Boyden chambers): HMGB1^RE-elicited migration of mouse 3T3 fibroblasts; format: cell-based
T5 construct: (i) full length: residues 2-215; 6x His (cleaved yes); made in house; host or cells: Escherichia coli BL21
T5 sequence (P09429 2-215): T3 sequence (P09429 2-215 R24A/K28A) with A23R, A27K
Experimental: as §1, §3

COX = details: cited from earlier work
[4] = de-acetylation by esterases in human plasma (Costello et al., 1984); cited from earlier work

NCCc1cccc(C(=O)O)c1O [3AESA, 3-aminoethyl SA]
binding of AtHMGB3 to 3AESA immobilized to SPR sensor chip (AtHMGB3): effectively bound
binding of AtHMGB1 to 3AESA immobilized to SPR sensor chip (AtHMGB1): effectively bound

COc1cc(CCc2ccccc2)c(C(=O)O)c(O)c1C/C=C(\C)CCC=C(C)C [amorfrutin B1]
inhibition of R24A/K28A HMGB1^RE's chemo-attractant activity [1]: only partially
binding to R24A/K28A HMGB1 (CSPs in HSQC) [2]: do not bind
effect on fibroblast migration induced by fMLP [3]: but not of 0.1 nM fMLP, was blocked
IC50 (HMGB1^RE; NIH/3T3 fibroblasts, 1 nM HMGB1^RE, read-out: IC50, inhibition of chemo-attractant activity of HMGB1^RE): ~0.06 µM
times more potent than SA at inhibiting the chemo-attractant activity of HMGB1^RE (HMGB1^RE; relative to SA): 50-70 times

CC(=O)Oc1ccccc1C(=O)O [aspirin, acetylsalicylic acid]
IC50, inhibition of COX activity in vitro (COX; literature (Mitchell et al., 1997; Vane, 1971)): 6.3 mg/L
IC50 (COX; literature, conversion in parentheses, read-out: IC50, inhibition of COX activity in vitro): ~35 µM
half-life of conversion to SA [4]: 13 to 19.5 min
